Like-named read-outs stand apart in the source and are kept apart here. Square brackets hold non-standard residues; d marks the D form. Peptide text beside a SMILES is read from it.
Tests used:
βENaC-Tg mice = type: in vivo
Source text: Like CF patients, βENaC-Tg mice are disease free at birth, but soon develop obstructive lung disease (Zhou, Z., et al. Am J Respir Crit Care Med 178, 1245-1256 (2008)). C57BL:FVB and C57BL:C3H mixed strains have 90% and 50% mortality, respectively, and the reproducibility of the disease on these backgrounds is sufficiently high that reliable data are produced with n of about 8-10 animals/group. Furthermore, the βENaC-Tg mouse responds to therapeutic interventions in a fashion similar to CF/COPD in humans, and the development of lung disease can be prevented following inhibition of lung disease at birth (Livraghi, A., et al. J Immunol 182, 4357-4367 (2009)). S18-derived peptides or vehicle were dosed one to three times a day by intranasal instillation (1 μl/g body weight) for 14 days in parallel cohorts of mice. Mice were weighed daily and, if a diuretic effect was found, the volume excreted was replaced by sub-cutaneous injections of sterile saline. At the end of the treatment, mice were sacrificed for phenotypic analysis.

alpha-ENaC = biological target: T1, alpha-ENaC (Homo sapiens, UniProt P37088); assay: Internalization of alpha-ENaC in HEK293T cells, GFP-tagged alpha-ENaC co-expressed only with gamma ENaC and no beta-ENaC; type: cell-based; settings: FIG. 6
T1 construct: expressed in transfected cells; host or cells: HEK293T
T1 sequence (P37088 1-669): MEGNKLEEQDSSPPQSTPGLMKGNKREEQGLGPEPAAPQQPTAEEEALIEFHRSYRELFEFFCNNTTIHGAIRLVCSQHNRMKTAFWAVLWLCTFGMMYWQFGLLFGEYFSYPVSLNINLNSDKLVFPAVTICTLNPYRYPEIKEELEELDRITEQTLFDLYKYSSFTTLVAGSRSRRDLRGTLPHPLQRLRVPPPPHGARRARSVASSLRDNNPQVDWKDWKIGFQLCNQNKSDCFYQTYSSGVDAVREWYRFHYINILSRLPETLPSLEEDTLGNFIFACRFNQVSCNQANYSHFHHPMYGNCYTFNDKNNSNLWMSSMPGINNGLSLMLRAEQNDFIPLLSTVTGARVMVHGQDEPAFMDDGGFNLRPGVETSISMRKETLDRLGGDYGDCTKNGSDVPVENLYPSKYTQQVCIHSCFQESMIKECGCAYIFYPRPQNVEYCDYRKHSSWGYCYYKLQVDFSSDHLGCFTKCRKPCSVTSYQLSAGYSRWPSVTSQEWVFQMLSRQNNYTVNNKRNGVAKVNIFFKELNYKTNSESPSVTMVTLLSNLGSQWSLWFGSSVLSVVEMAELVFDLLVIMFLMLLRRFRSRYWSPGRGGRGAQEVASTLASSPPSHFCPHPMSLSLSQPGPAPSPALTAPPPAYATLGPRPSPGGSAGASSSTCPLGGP
Protocol: […] Am J Physiol Lung Cell Mol Physiol. 2013 December; 305(12):L990-L1001. doi: 10.1152/ajplung.00103.2013. Epub 2013 October; Garland et al. Proc Natl Acad Sci USA. 2013 Oct. 1; 110(40):15973-8. doi: 10.1073/pnas.1311999110. Epub 2013 Sep. 16.; Tan et al. J Physiol. 2014 Dec. 1; 592(Pt 23):5251-68). Twenty-four hours later, peptide or vehicle control were added at t=0 and fluorescence was read using a Tecan M1000 plate reader 3 h later. Fluorescence was read at 488 nm (excitation)/510 nm (emission).

[1] = biological target: T2, epithelial sodium channels (Homo sapiens, UniProt P37088+P51168+P51170); assay: Airway surface liquid hyper absorption in human bronchial epithelial cultures from CF patients; type: cell-based
T2 construct: human bronchial epithelial cultures from CF patients; endogenous in cells; host or cells: human bronchial epithelial cultures from CF patients
T2 sequence (P37088 1-669): T1 sequence (P37088 1-669)
T2 sequence (P51168 1-640): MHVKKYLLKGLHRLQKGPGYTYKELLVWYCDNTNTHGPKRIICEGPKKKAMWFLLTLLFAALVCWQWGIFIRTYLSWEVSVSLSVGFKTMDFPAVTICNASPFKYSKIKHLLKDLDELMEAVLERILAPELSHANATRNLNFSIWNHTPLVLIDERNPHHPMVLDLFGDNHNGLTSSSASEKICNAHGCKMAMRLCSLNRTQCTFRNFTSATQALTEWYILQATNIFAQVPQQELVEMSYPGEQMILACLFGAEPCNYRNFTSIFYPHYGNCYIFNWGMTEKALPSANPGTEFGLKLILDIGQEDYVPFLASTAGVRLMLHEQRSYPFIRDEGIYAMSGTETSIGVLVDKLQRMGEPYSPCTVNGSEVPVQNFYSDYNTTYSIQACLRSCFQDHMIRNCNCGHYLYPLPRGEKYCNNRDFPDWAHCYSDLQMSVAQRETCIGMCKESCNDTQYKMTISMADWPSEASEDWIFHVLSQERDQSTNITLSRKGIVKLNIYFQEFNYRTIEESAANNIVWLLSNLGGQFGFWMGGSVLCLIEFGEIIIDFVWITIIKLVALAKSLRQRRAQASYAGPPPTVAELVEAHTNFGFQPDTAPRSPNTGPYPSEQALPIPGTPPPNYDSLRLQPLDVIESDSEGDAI
T2 sequence (P51170 1-649): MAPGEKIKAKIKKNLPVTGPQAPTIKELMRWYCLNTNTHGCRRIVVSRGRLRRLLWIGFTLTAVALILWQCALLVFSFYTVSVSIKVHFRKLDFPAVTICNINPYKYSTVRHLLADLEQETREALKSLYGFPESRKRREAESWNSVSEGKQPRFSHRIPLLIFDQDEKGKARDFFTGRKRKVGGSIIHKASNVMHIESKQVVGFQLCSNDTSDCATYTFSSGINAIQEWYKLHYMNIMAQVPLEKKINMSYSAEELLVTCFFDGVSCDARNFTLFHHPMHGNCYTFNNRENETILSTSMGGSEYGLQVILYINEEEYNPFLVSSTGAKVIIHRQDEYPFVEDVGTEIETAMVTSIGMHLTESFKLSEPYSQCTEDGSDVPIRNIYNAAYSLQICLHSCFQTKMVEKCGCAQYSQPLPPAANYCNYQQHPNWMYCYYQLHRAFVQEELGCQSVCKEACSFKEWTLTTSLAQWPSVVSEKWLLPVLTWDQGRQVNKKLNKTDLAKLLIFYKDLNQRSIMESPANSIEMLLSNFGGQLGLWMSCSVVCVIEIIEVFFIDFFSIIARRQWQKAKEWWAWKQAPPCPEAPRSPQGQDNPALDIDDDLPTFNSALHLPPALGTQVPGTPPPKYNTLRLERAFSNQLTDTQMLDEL

`CC[C@H](C)[C@H](NC(=O)[C@@H]1CCCN1C(=O)[C@H](CC(C)C)NC(=O)[C@@H](C)NC(=O)[C@@H](C)N)C(=O)N1CCC[C@H]1C(=O)N[C@@H](CC(C)C)C(=O)N[C@@H](CC(=O)O)C(=O)N[C@@H](CCC(N)=O)C(=O)N[C@H](C(=O)N[C@H](C)C(=O)N[C@H](C)C(N)=O)[C@@H](C)O` [SEQ ID NO:128, aaLPIPLDQTaa] (H-[dA][dA]LPIPLDQT[dA][dA]-NH2) was tested, and the percent survival (βENaC-Tg mice; βENaC-Tg C57BL:C3H mice, fourteen-day treatment, FIGS. 7C, 7D, 7F) was “increased percent survival”, the percent survival (βENaC-Tg mice; βENaC-Tg C57BL:C3H mice, once daily dosing, FIG. 7E left panel) was “increased percent survival” and the percent survival (βENaC-Tg mice; βENaC-Tg C57BL:FVB mice, fourteen-day inhaled treatment, FIG. 7B) was “more effective than inhaled SEQ ID NO:142 at increasing percent survival”. For the same compound, the “effect on alpha-ENaC” value (alpha-ENaC) was “no effect” and the “duration of prevention of airway surface liquid hyper absorption following a single dose” value [1] was greater than 8 h.

— US20200031866A1, “PEPTIDE INHIBITORS OF SODIUM CHANNELS” (SPYRYX BIOSCIENCES, INC., priority 2016, published 2020)
